Reference: article PMC9250534, “Synthesis and direct assay of large macrocycle diversities by combinatorial late-stage modification at picomole scale” (Nature Communications, 2022)
Numbered stars: 1 amine (or outer) side, 2 acyl side, 3 side chain; on linkers, the order of the positions; unused ones are H or OH. Bridge positions count the residues as written; N and C are the ends. Square brackets hold non-standard residues; d marks the D form. Peptide text beside a SMILES is read from it. * marks the point of attachment. ξ: configuration not given here. ξPro(4ξ-NHCOC6H4-4-Cl) = O=C(NC1CNC(C(=O)O)C1)c1ccc(Cl)cc1; Pyrazinoyl(5-oxo-4H) = O=C(c1c[nH]c(=O)cn1)*; Phenylacetyl(4-Cl) = O=C(Cc1ccc(Cl)cc1)*; Benzoyl(3,5-F2) = O=C(c1cc(F)cc(F)c1)*; Benzoyl(4-Cl) = O=C(c1ccc(Cl)cc1)*; Cyclohexylacetyl = O=C(CC1CCCCC1)*; Benzoyl(3-OH) = O=C(c1cccc(O)c1)*; X14 = O=C(C1(c2ccccc2)CCCCC1)*; X4 = O=C(c1cccc2c1OC(F)(F)O2)*; Cysteamide = C(CS[*:3])N[*:1]; X1 = O=C(/C=C/c1ccccc1)*; X16 = Cc1cc(C(=O)*)ccc1O; 2Furoyl = O=C(c1ccco1)*; Api = NC1(C(=O)O)CCNCC1; Dap = NC[C@H](N)C(=O)O; X2 = O=C(C=Cc1ccccc1)*; Mpa = O=C(O)CCS

Target: MDM2 (Homo sapiens, UniProt Q00987)
Sequence (Q00987 whole entry): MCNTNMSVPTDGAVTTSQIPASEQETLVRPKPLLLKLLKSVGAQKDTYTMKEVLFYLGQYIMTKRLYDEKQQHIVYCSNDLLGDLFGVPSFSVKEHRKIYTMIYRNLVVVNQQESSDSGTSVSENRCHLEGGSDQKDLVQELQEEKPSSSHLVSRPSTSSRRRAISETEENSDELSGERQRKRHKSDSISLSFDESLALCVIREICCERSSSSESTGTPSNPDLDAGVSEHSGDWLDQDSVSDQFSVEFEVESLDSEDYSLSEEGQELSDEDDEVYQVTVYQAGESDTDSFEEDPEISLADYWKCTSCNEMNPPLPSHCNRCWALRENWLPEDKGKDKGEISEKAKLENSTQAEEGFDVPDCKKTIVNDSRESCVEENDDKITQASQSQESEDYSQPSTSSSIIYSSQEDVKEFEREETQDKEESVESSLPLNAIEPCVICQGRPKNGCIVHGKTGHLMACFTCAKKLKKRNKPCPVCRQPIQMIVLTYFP
Assay: MDM2 binding screen: displacement of fluorescent p53 peptide probe FP53 (fluorescence polarization)
Conditions: for fraction fluorescent probe displaced, Screen: initial screen; for fraction fluorescent probe displaced, Screen / fraction fluorescent probe displaced, Replicate: crude macrocycle reactions
In short: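 Macrocycle reaction products at a final 10 µM were tested for displacement of a p53-based fluorescent peptide from human MDM2. Fluorescence anisotropy (ex 485/em 535 nm) was read once per macrocycle at 25 °C.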

[1] = 10 µM macrocycle concentration, crude acylated macrocycle (scaffold Mpa-AA1-AA2-AA3 x carboxylic acid), p53-based fluorescent peptide, human MDM2

## O=C1CCSSCCNC(=O)C2CCCN2C(=O)C2(CCN(C(=O)C=Cc3ccccc3)CC2)NC(=O)C(Cc2ccccc2)N1 (stereo not drawn) [X F D6 B1 Acid 91] ([Mpa]F[Api](X2)P-Cysteamide; disulfide 1-C; configuration not given here)
Acid 91
  fraction fluorescent probe displaced, Screen: -0.08
Acid 91, replicate
  fraction fluorescent probe displaced, Replicate: 0.04

## O=C(/C=C/c1ccccc1)NC[C@@H]1NC(=O)[C@@H]2CCCN2C(=O)[C@H](Cc2ccccc2)NC(=O)CCSSCCNC1=O [X F B1 D3 Acid 91] ([Mpa]FP[Dap](X1)-Cysteamide; disulfide 1-C)
Acid 91
  fraction fluorescent probe displaced, Screen: 0.08
Acid 91, replicate
  fraction fluorescent probe displaced, Replicate: 0.04

## O=C1CCSSCCNC(=O)C2CC(NC(=O)c3ccc(Cl)s3)CN2C(=O)c2cccc(c2)CNC(=O)C(Cc2c[nH]c3ccccc23)N1 (stereo not drawn) [X W B5 D5 Acid 14]
Acid 14
  fraction fluorescent probe displaced, Screen: 0.14
Acid 14, replicate
  fraction fluorescent probe displaced, Replicate: 0.10

## O=C1CCSSCCNC(=O)[C@@H]2CCCN2C(=O)[C@H](CNC(=O)c2ccc(Cl)cc2)NC(=O)[C@H](Cc2c[nH]c3ccccc23)N1 [X W D3 B1 Acid 25] ([Mpa]W[Dap](Benzoyl(4-Cl))P-Cysteamide; disulfide 1-C)
Acid 25
  fraction fluorescent probe displaced, Screen: 0.32
Acid 25, replicate
  fraction fluorescent probe displaced, Replicate: 0.30

## O=C1NCCSSCCC(=O)N2CCC[C@H]2C(=O)N[C@@H](CNC(=O)C2(c3ccccc3)CCCCC2)C(=O)N[C@H]1Cc1ccccc1 [X-B1-D3-F + A98] ([Mpa]P[Dap](X14)F-Cysteamide; disulfide 1-C)
[1]
  fraction fluorescent probe displaced: 0.6432

## O=C1CCSSCCNC(=O)C(CNC(=O)c2ccc(Cl)s2)NC(=O)c2cccc(c2)CNC(=O)C(Cc2ccccc2)N1 (stereo not drawn) [X F B5 D3 Acid 14]
Acid 14
  fraction fluorescent probe displaced, Screen: 0.08
Acid 14, replicate
  fraction fluorescent probe displaced, Replicate: -0.00432

## O=C1NC2(CCN(C(=O)/C=C/c3ccccc3)CC2)C(=O)NCCSSCCC(=O)N2CCC[C@H]2C(=O)N[C@H]1Cc1c[nH]c2ccccc12 [X B1 W D6 Acid 91] ([Mpa]PW[Api](X1)-Cysteamide; disulfide 1-C)
Acid 91
  fraction fluorescent probe displaced, Screen: 0.14
Acid 91, replicate
  fraction fluorescent probe displaced, Replicate: 0.07

## O=C(NC[C@@H]1NC(=O)[C@@H]2CCCN2C(=O)CCSSCCNC(=O)[C@H](Cc2c[nH]c3ccccc23)NC1=O)c1cccc(O)c1 [X-B1-D3-W + A27] ([Mpa]P[Dap](Benzoyl(3-OH))W-Cysteamide; disulfide 1-C)
[1]
  fraction fluorescent probe displaced: 0.1229

## O=C(CC1CCCCC1)NC[C@@H]1NC(=O)[C@@H]2CCCN2C(=O)CCSSCCNC(=O)[C@H](Cc2ccccc2)NC1=O [X-B1-D3-F + A66] ([Mpa]P[Dap](Cyclohexylacetyl)F-Cysteamide; disulfide 1-C)
[1]
  fraction fluorescent probe displaced: 0.03478

## O=C(Cc1ccc(Cl)cc1)NC[C@@H]1NC(=O)[C@@H]2CCCN2C(=O)CCSSCCNC(=O)[C@H](Cc2c[nH]c3ccccc23)NC1=O [X-B1-D3-W + A45] ([Mpa]P[Dap](Phenylacetyl(4-Cl))W-Cysteamide; disulfide 1-C)
[1]
  fraction fluorescent probe displaced: 0.08387

## O=C1CCSSCCNC(=O)c2cccc(c2)CNC(=O)C2(CCN(C(=O)/C=C/c3ccccc3)CC2)NC(=O)[C@H](Cc2ccccc2)N1 [X F D6 B5 Acid 91]
Acid 91
  fraction fluorescent probe displaced, Screen: -0.0241
Acid 91, replicate
  fraction fluorescent probe displaced, Replicate: -0.0333

## O=C1CCSSCCNC(=O)[C@H](Cc2ccccc2)NC(=O)[C@@H]2CCCN2C(=O)C2(CCN(C(=O)c3ccc(Cl)cc3)CC2)N1 [X D6 B1 F Acid 25] ([Mpa][Api](Benzoyl(4-Cl))PF-Cysteamide; disulfide 1-C)
Acid 25
  fraction fluorescent probe displaced, Screen: 0.0569
Acid 25, replicate
  fraction fluorescent probe displaced, Replicate: 0.07

## O=C1CCSSCCNC(=O)[C@H](Cc2ccccc2)NC(=O)[C@H]2CCCN(C2)C(=O)[C@H](CNC(=O)c2ccc(Cl)s2)N1 [X D3 B4 F Acid 14]
Acid 14
  fraction fluorescent probe displaced, Screen: 0.0241
Acid 14, replicate
  fraction fluorescent probe displaced, Replicate: 0.10

## O=C1CCSSCCNC(=O)C2CCCN2C(=O)C2CC(NC(=O)c3ccc(Cl)cc3)CN2C(=O)C(Cc2c[nH]c3ccccc23)N1 (stereo not drawn) [X W D5 B1 Acid 25] ([Mpa]W[ξPro(4ξ-NHCOC6H4-4-Cl)]P-Cysteamide; disulfide 1-C; configuration not given here)
Acid 25
  fraction fluorescent probe displaced, Screen: 0.22
Acid 25, replicate
  fraction fluorescent probe displaced, Replicate: 0.28

## O=C1CCNC(=O)C2(CCN(C(=O)/C=C/c3ccccc3)CC2)NC(=O)[C@H](Cc2ccccc2)NC(=O)CCSSCCN1 [X F D6 B2 Acid 91]
Acid 91
  fraction fluorescent probe displaced, Screen: 0.03
Acid 91, replicate
  fraction fluorescent probe displaced, Replicate: -0.00827

## O=C1CCSSCCNC(=O)C2(CCN(C(=O)/C=C/c3ccccc3)CC2)NC(=O)[C@@H]2CCCN2C(=O)[C@H](Cc2ccccc2)N1 [X F B1 D6 Acid 91] ([Mpa]FP[Api](X1)-Cysteamide; disulfide 1-C)
Acid 91
  fraction fluorescent probe displaced, Screen: -0.05
Acid 91, replicate
  fraction fluorescent probe displaced, Replicate: 0.0168

## O=C(NC[C@@H]1NC(=O)[C@@H]2CCCN2C(=O)CCSSCCNC(=O)[C@H](Cc2ccccc2)NC1=O)c1c[nH]c(=O)cn1 [X-B1-D3-F + A9] ([Mpa]P[Dap](Pyrazinoyl(5-oxo-4H))F-Cysteamide; disulfide 1-C)
[1]
  fraction fluorescent probe displaced: -0.0026

## O=C(C=Cc1ccccc1)NC1CC2C(=O)NC(Cc3c[nH]c4ccccc34)C(=O)NCCSSCCC(=O)NCCC(=O)N2C1 (stereo not drawn) [X B2 D5 W Acid 91]
Acid 91
  fraction fluorescent probe displaced, Screen: 0.03
Acid 91, replicate
  fraction fluorescent probe displaced, Replicate: 0.0168

## O=C1CCSSCCNC(=O)c2cccc(c2)CNC(=O)C(Cc2ccccc2)NC(=O)C(CNC(=O)c2ccc(Cl)cc2)N1 (stereo not drawn) [X D3 F B5 Acid 25]
Acid 25
  fraction fluorescent probe displaced, Screen: 0.0569
Acid 25, replicate
  fraction fluorescent probe displaced, Replicate: 0.10

## O=C1NC2(CCN(C(=O)/C=C/c3ccccc3)CC2)C(=O)N[C@@H](Cc2ccccc2)C(=O)NCCSSCCC(=O)N2CCC[C@H]1C2 [X B4 D6 F + Acid 91]
Crude reaction of macrocycle scaffold with Acid 91, (initial screen)
  fraction fluorescent probe displaced: 0.12
Crude reaction of macrocycle scaffold with Acid 91, replicate
  fraction fluorescent probe displaced: 0.12

## O=C(NC[C@@H]1NC(=O)[C@@H]2CCCN2C(=O)CCSSCCNC(=O)[C@H](Cc2ccccc2)NC1=O)c1cc(F)cc(F)c1 [X-B1-D3-F + A23] ([Mpa]P[Dap](Benzoyl(3,5-F2))F-Cysteamide; disulfide 1-C)
[1]
  fraction fluorescent probe displaced: 0.02873

## O=C1CCSSCCNC(=O)C2(CCN(C(=O)/C=C/c3ccccc3)CC2)NC(=O)[C@H](Cc2c[nH]c3ccccc23)NC(=O)c2cccc(c2)CN1 [X B5 W D6 Acid 91]
Acid 91
  fraction fluorescent probe displaced, Screen: 0.16
Acid 91, replicate
  fraction fluorescent probe displaced, Replicate: 0.17

## O=C1CCSSCCNC(=O)C2CN(C(=O)C=Cc3ccccc3)CCN2C(=O)C(Cc2c[nH]c3ccccc23)NC(=O)c2cccc(c2)CN1 (stereo not drawn) [X B5 W D7 Acid 91]
Acid 91
  fraction fluorescent probe displaced, Screen: 0.03
Acid 91, replicate
  fraction fluorescent probe displaced, Replicate: -0.00827

## O=C(/C=C/c1ccccc1)NC[C@@H]1NC(=O)[C@H](Cc2ccccc2)NC(=O)c2cccc(c2)CNC(=O)CCSSCCNC1=O [X B5 F D3 Acid 91]
Acid 91
  fraction fluorescent probe displaced, Screen: -0.05
Acid 91, replicate
  fraction fluorescent probe displaced, Replicate: -0.00827

## O=C1CCSSCCNC(=O)C2CN(C(=O)C=Cc3ccccc3)CCN2C(=O)C2CCCN2C(=O)C(Cc2c[nH]c3ccccc23)N1 (mixture of isomers) [X W B1 D7 Acid 91]
Acid 91
  fraction fluorescent probe displaced, Screen: 0.22
Acid 91, replicate
  fraction fluorescent probe displaced, Replicate: 0.07

## O=C(C=Cc1ccccc1)NCC1NC(=O)CCSSCCNC(=O)C(Cc2c[nH]c3ccccc23)NC(=O)c2cccc(c2)CNC1=O (stereo not drawn) [X D3 B5 W Acid 91]
Acid 91
  fraction fluorescent probe displaced, Screen: 0.08
Acid 91, replicate
  fraction fluorescent probe displaced, Replicate: 0.14

## Cc1cc(C(=O)NC[C@@H]2NC(=O)[C@@H]3CCCN3C(=O)CCSSCCNC(=O)[C@H](Cc3c[nH]c4ccccc34)NC2=O)ccc1O [X-B1-D3-W + A30] ([Mpa]P[Dap](X16)W-Cysteamide; disulfide 1-C)
[1]
  fraction fluorescent probe displaced: 0.08563

## O=C1CCSSCCNC(=O)C2CC(NC(=O)c3ccc(Cl)s3)CN2C(=O)C2CCCN(C2)C(=O)C(Cc2c[nH]c3ccccc23)N1 (stereo not drawn) [X W B4 D5 Acid 14]
Acid 14
  fraction fluorescent probe displaced, Screen: 0.23
Acid 14, replicate
  fraction fluorescent probe displaced, Replicate: 0.35

## O=C1CCSSCCNC(=O)c2cccc(c2)CNC(=O)C2(CCN(C(=O)c3ccc(Cl)s3)CC2)NC(=O)[C@H](Cc2ccccc2)N1 [X F D6 B5 Acid 14]
Acid 14
  fraction fluorescent probe displaced, Screen: 0.053
Acid 14, replicate
  fraction fluorescent probe displaced, Replicate: 0.0211

## O=C1CCSSCCNC(=O)[C@H](CNC(=O)c2ccc(Cl)s2)NC(=O)[C@H](Cc2ccccc2)NC(=O)c2cccc(c2)CN1 [X B5 F D3 Acid 14]
Acid 14
  fraction fluorescent probe displaced, Screen: 0.053
Acid 14, replicate
  fraction fluorescent probe displaced, Replicate: 0.0211

## O=C1CCNC(=O)C2CN(C(=O)C=Cc3ccccc3)CCN2C(=O)CCSSCCNC(=O)C(Cc2c[nH]c3ccccc23)N1 (stereo not drawn) [X D7 B2 W Acid 91]
Acid 91
  fraction fluorescent probe displaced, Screen: 0.11
Acid 91, replicate
  fraction fluorescent probe displaced, Replicate: 0.07

## O=C1CCSSCCNC(=O)[C@H]2CCCN(C2)C(=O)[C@H](CNC(=O)c2ccc(Cl)cc2)NC(=O)[C@H](Cc2c[nH]c3ccccc23)N1 [X W D3 B4 Acid 25]
Acid 25
  fraction fluorescent probe displaced, Screen: 0.28
Acid 25, replicate
  fraction fluorescent probe displaced, Replicate: 0.12

## O=C1CCSSCCNC(=O)C2(CCN(C(=O)c3ccc(Cl)s3)CC2)NC(=O)[C@H]2CCCN(C2)C(=O)[C@H](Cc2ccccc2)N1 [X F B4 D6 Acid 14]
Acid 14
  fraction fluorescent probe displaced, Screen: 0.08
Acid 14, replicate
  fraction fluorescent probe displaced, Replicate: 0.20

## O=C(NC[C@@H]1NC(=O)[C@@H]2CCCN2C(=O)CCSSCCNC(=O)[C@H](Cc2ccccc2)NC1=O)c1cccc2c1OC(F)(F)O2 [X-B1-D3-F + A38] ([Mpa]P[Dap](X4)F-Cysteamide; disulfide 1-C)
[1]
  fraction fluorescent probe displaced: 0.06653

## O=C(C=Cc1ccccc1)NC1CC2C(=O)NC(Cc3ccccc3)C(=O)NCCSSCCC(=O)NCCC(=O)N2C1 (stereo not drawn) [X B2 D5 F Acid 91]
Acid 91
  fraction fluorescent probe displaced, Screen: -0.17
Acid 91, replicate
  fraction fluorescent probe displaced, Replicate: -0.08

## O=C(NC[C@@H]1NC(=O)[C@@H]2CCCN2C(=O)CCSSCCNC(=O)[C@H](Cc2c[nH]c3ccccc23)NC1=O)c1ccco1 [X-B1-D3-W + A16] ([Mpa]P[Dap](2Furoyl)W-Cysteamide; disulfide 1-C)
[1]
  fraction fluorescent probe displaced: 0.06294
